Data as given in EP0035856A2, “Pharmaceutical and dietary compositions” (EFAMOL LIMITED, priority 1980, dated 1981).
Where two headings read alike, the source gives them in different places.

What was measured:
[1] = tested on: rat mesenteric vascular bed; conditions: cited from earlier work; for inhibitory action on noradrenaline responses with intact PG synthesis versus PG synthesis blocked: PG synthesis blocked by indomethacin or by aspirin
[2] = tested on: Platelets (human); assay: Conversion of 14C-labelled DGLA and AA to PGEs and TXBs in human platelets; assay type: cell-based; conditions: Platelet, 5 μg/ml drug, percentage of control incubation with drug vehicle alone
Protocol: The method is given in detail later herein but briefly human platelets are incubated with radioactive DGLA or arachidonic acid. The PGs produced during incubation are extracted by conventional means and separated by thin layer chromatography, and the amount of radioactivity appearing in each PG or related substance is counted. PGE 1, PGF la and thromboxane Bl from DGLA, and PGE 2, PFG 2a and thromboxane B2 from AA are estimated.
The conversions of the precursors to the respective PGEs and TXBs in platelets and to the PGEs in kidney slices were investigated. […] A 10% variation is a reliable indication of real change.
The chloroform/methanol extract was then reduced in volume to 1 ml under dry prepurified nitrogen. Thin layer chromatography was carried out on 500 µg precoated, prescored silica gel G Uniplates (Analtech). Plates were activated by heating to 100°C for 1 hour immediately prior to use. The solvent system was chloroform:methanol: acetic acid:water (90:8:1:0.8). Reference compounds (PG's El and Fla, and thromboxane Bl) were run at the same time and visualized by phosphomolybdic acid spray followed by brief heating. […] Each elution was then evaporated to dryness and counted by liquid scintillation (Beckman 100 LS counter). […]

[3] = tested on: Kidney slices (rat); assay: Conversion of 14C-labelled DGLA and AA to PGEs in rat kidney slices; assay type: cell-based; conditions: 5 μg/ml drug, percentage of control incubation with drug vehicle alone, 10% variation is a real change
Protocol: The conversions of the precursors to the respective PGEs and TXBs in platelets and to the PGEs in kidney slices were investigated. The results are shown in the following tables and are expressed as percentages of the results obtained during control incubations when drug vehicle alone was added. A 10% variation is a reliable indication of real change.
The detailed technique with platelets is given below by way of example. That with kidney slices was essentially similar.
(1-^14C) arachidonic acid and (1-^14C) dihomo-y-linolenic acid was used, diluted with hexane to specific activities of about 2 or 5 µCi/µmol. One day expired (2 days old) human platelets were obtained and used within 48 hours of expiration. One unit was centrifuged at lOOOg for 15 minutes and the supernatant drawn off. The platelet pellet was resuspended in Tris-NaCl-EDTA buffer, made up of 0.15 M NaCl, 0.15 M Tris HC1 at pH 7.4 and 0.077 M NaEDTA (90:8:2 v/v/v). The platelets were recentrifuged, the supernatant removed and the pellet resuspended in Krebs-Henseleit buffer (without calcium) at oH 7.4. The washed platelet suspension contained about 1-2% red blood cells. All glassware used in the preparation of the platelets was siliconized.
Four equal sized 1 ml aliquots of the platelet suspension, containing 10^9 platelets/ml were incubated with e.g. 0.5 µCi 14 C-DGLA for five minutes. At the beginning of the incubation the drug under test was added to the suspensions. The reaction was stopped after five minutes by addition of 1/10 volume of 10% formic acid. The suspension was then extracted three times with ethyl acetate and the fractions pooled and dried under vacuum. The extract was then taken up with 5 ml chloroform/methanol (2/1, v/v). Recovery of radioactive material in the extract was checked by taking 50pl of the chloroform/methanol and counting by liquid scintillation. Recovery was in the range 80-95% in most experiments.
The chloroform/methanol extract was then reduced in volume to 1 ml under dry prepurified nitrogen. Thin layer chromatography was carried out on […] precoated, prescored silica gel G Uniplates (Analtech). Plates were activated by heating to 100°C for 1 hour immediately prior to use. The solvent system was chloroform:methanol: acetic acid:water (90:8:1:0.8). Reference compounds (PG's El and Fla, and thromboxane Bl) were run at the same time and visualized by phosphomolybdic acid spray followed by brief heating. The bands on the plates corresponding to the reference PGE 1,PFG la and TXB 1 were scraped off and eluted with 20 ml acetone. Each elution was then evaporated to dryness and counted by liquid scintillation (Beckman 100 LS counter). […]

[4] = read-out: PGE 1 formed from precursor acid DGLA
[5] = read-out: PGE 2 formed from precursor acid AA

SMILES	effect on responses to noradrenaline [1]	inhibitory action on noradrenaline responses with intact PG synthesis versus PG synthesis blocked [1]	further results
CCCCC/C=C\C/C=C\C/C=C\C/C=C\CCCC(=O)O [AA, arachidonic acid]	increase noradrenaline responses		
CCCCC/C=C\C/C=C\C/C=C\CCCCCCC(=O)O [DGLA, dihomo-y-linolenic acid]	inhibit responses to noradrenaline		
CCCCC[C@H](O)/C=C/[C@H]1[C@H](O)CC(=O)[C@@H]1CCCCCCC(=O)O [PGE 1]	inhibit responses to noradrenaline		
CCN(CC)CCCC(C)Nc1ccnc2cc(Cl)ccc12 (centres unmarked) [chloroquine]	inhibits responses to noradrenaline	more potent when endogenous prostaglandin synthesis is intact	activity at 5 µg/mL [2, 4]: 132%; activity at 5 µg/mL [2, 5]: 98%; activity at 5 µg/mL ([2]; read-out: TXB 1 formed from precursor acid DGLA): 128%; activity at 5 µg/mL ([2]; read-out: TXB 2 formed from precursor acid AA): 97%; activity at 5 µg/mL [3, 4]: 129%; activity at 5 µg/mL [3, 5]: 101%
CCN(CC)CCOC(=O)c1ccc(N)cc1 [procaine]		share this effect of chloroquine	
CCN(CC)CCCC(C)Nc1c2ccc(Cl)cc2nc2ccc(OC)cc12 (centres unmarked) [quinacrine]		share this effect of chloroquine	
C=C[C@H]1C[N@@]2CC[C@H]1C[C@@H]2[C@@H](O)c1ccnc2ccc(OC)cc12 [quinidine]		share this effect of chloroquine	
C=C[C@H]1C[N@@]2CC[C@H]1C[C@H]2[C@H](O)c1ccnc2ccc(OC)cc12 [quinine]		share this effect of chloroquine	
CC(=O)S[C@@H]1CC2=CC(=O)CC[C@]2(C)[C@H]2CC[C@@]3(C)[C@@H](CC[C@@]34CCC(=O)O4)[C@H]12 [spironolactone]			activity at 5 µg/mL [3, 4]: 143%; activity at 5 µg/mL [3, 5]: 67%
